Measured values as given in patent US20110086834A1, “ALKYNYL ALCOHOLS AS KINASE INHIBITORS” (AMGEN INC., priority 2008, published 2011).

biological target: T1, NIK (Homo sapiens, UniProt Q99558); experiment: homogenous time resolved fluorescence (HTRF) assay for NIK Ki measurement; assay type: biochemical; details: truncated NIK (catalytic domain only), autophosphorylation; 10 nM enzyme; 20, 100, 200 or 500 μM ATP; room temperature, 2 hours; read-out: Ki activity in the homogenous time resolved fluorescence (HTRF) assay for NIK
T1 construct: Both assays utilize a truncated form of NIK containing only the catalytic domain; made in house; host or cells: baculovirus expression system (insect cells implied)
T1 sequence (Q99558 400-655 limits assumed): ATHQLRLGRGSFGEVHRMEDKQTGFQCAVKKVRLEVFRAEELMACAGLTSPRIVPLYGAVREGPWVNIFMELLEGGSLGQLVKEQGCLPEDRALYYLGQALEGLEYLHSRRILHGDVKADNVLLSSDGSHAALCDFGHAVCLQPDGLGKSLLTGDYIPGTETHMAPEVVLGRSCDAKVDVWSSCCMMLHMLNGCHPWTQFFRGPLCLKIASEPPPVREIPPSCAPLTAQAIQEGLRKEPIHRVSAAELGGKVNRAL
Protocol: Two formats of biochemical assays are implemented: (1) chemiluminescent (CL) assay for NIK IC50 determination; (2) homogenous time resolved fluorescence (HTRF) assay for NIK Ki measurement. […] The NIK proteins are purified with baculovirus expression system and further biotinylated with N-hydroxysuccinamide biotin ester (Sigma). […] The reaction mixtures are then immobilized on a Streptavidin-coated plate (Pierce). […] For the HTRF assay, 10 nM of enzyme are incubated with compounds in the presence of 20, 100, 200, or 500 μM of ATP in a buffer with 20 mM of Hepes pH7.5, 20 mM of MgCl2, 0.2% of Tween 20 and 1 mM of DTT at room temperature for 2 hours.

Ki [nM] | SMILES
< 1000 | Cc1cc(C(C)(O)C#Cc2ccc3c(c2)N(c2ccnc(N)n2)CC3)no1 (stereo not shown) [Example 20, 4-(1-(2-aminopyrimidin-4-yl)indolin-6-yl)-2-(5-methylisoxazol-3-yl)but-3-yn-2-ol]
< 1000 | CC(O)(C#Cc1ccc2c(c1)N(c1ccnc(N)n1)CC2)C1CCC1 (stereo not shown) [Example 21, 4-(1-(2-aminopyrimidin-4-yl)indolin-6-yl)-2-cyclobutylbut-3-yn-2-ol]
< 1000 | CCc1csc(C(C)(O)C#Cc2ccc3c(c2)N(c2nc(N)ncc2Cl)CC3)c1 (stereo not shown) [Example 22, 4-(1-(2-amino-5-chloropyrimidin-4-yl)indolin-6-yl)-2-(4-ethylthiophen-2-yl)but-3-yn-2-ol]
< 1000 | Cn1ccc(C(C)(O)C#Cc2ccc3c(c2)N(c2nc(N)ncc2Cl)CC3)n1 (stereo not shown) [Example 26, 4-(1-(2-amino-5-chloropyrimidin-4-yl)indolin-6-yl)-2-(1-methyl-1H-pyrazol-3-yl)but-3-yn-2-ol]
< 1000 | C[C@@](O)(C#Cc1ccc2c(c1)N(c1ncncc1Cl)CC21CCOCC1)c1nccs1 [Example 32, (2R)-4-[1-(5-chloropyrimidin-4-yl)-1,2,2′,3′,5′,6′-hexahydrospiro[indole-3,4′-pyran]-6-yl]-2-(1,3-thiazol-2-yl)but-3-yn-2-ol]
< 1000 | C[C@@](O)(C#Cc1ccc2c(c1)N(c1ccncn1)CC21CCOCC1)c1nccs1 [Example 33, (2R)-4-(1-pyrimidin-4-yl-1,2,2′,3′,5′,6′-hexahydrospiro[indole-3,4′-pyran]-6-yl)-2-(1,3-thiazol-2-yl)but-3-yn-2-ol]
< 1000 | CC(O)(C#Cc1ccc2c(c1)N(c1nc(N)ncc1Cl)CC2)c1ncc(C#N)s1 (stereo not shown) [Example 34, 2-(4-(1-(2-amino-5-chloropyrimidin-4-yl)indolin-6-yl)-2-hydroxybut-3-yn-2-yl)thiazole-5-carbonitrile]
1000 to 30000 | CC(O)(C#Cc1ccc2c(c1)N(c1nc(N)ncc1Cl)CC2)c1nc(CO)cs1 (stereo not shown) [Example 35, 4-(1-(2-amino-5-chloropyrimidin-4-yl)indolin-6-yl)-2-(4-(hydroxymethyl)thiazol-2-yl)but-3-yn-2-ol]
< 1000 | CN1CCOC2(C1)CN(c1nc(N)ncc1Cl)c1cc(C#C[C@@](C)(O)c3nccs3)ccc12 (stereo partly drawn) [Example 36, (2R)-4-[1-(2-amino-5-chloropyrimidin-4-yl)-4′-methyl-1,2-dihydrospiro[indole-3,2′-[1,4]oxazinan]-6-yl]-2-(1,3-thiazol-2-yl)but-3-yn-2-ol]
< 1000 | CC(O)(C#Cc1ccc2c(c1)N(c1ncncn1)CC21CCOCC1)c1nccs1 (stereo not shown) [Example 37, 2-(1,3-thiazol-2-yl)-4-(1-(1,3,5-triazin-2-yl)-1,2,2′,3′,5′,6′-hexahydrospiro[indole-3,4′-pyran]-6-yl)-3-butyn-2-ol]
< 1000 | CC(O)(C#Cc1ccc2c(c1)N(c1ncncn1)CC2(C)C)c1nccs1 (stereo not shown) [Example 38, 4-(3,3-dimethyl-1-(1,3,5-triazin-2-yl)-2,3-dihydro-1H-indol-6-yl)-2-(1,3-thiazol-2-yl)-3-butyn-2-ol]
< 1000 | CN1CC[C@](O)(C#Cc2ccc3c(c2)N(c2nc(N)ncc2Cl)CC3(C)C)C1=O [Example 44, (3S)-3-((1-(2-amino-5-chloro-4-pyrimidinyl)-3,3-dimethyl-2,3-dihydro-1H-indol-6-yl)ethynyl)-3-hydroxy-1-methyl-2-pyrrolidinone]
< 1000 | Cn1cnc(C(C)(O)C#Cc2ccc3c(c2)N(c2nc(N)ncc2Cl)CC3(C)C)c1 (stereo not shown) [Example 45, 4-(1-(2-amino-5-chloro-4-pyrimidinyl)-3,3-dimethyl-2,3-dihydro-1H-indol-6-yl)-2-(1-methyl-1H-imidazol-4-yl)-3-butyn-2-ol]
< 1000 | Cn1cnc(C(O)C#Cc2ccc3c(c2)N(c2nc(N)ncc2Cl)CC3(C)C)c1 (stereo not shown) [Example 46, 3-(1-(2-amino-5-chloro-4-pyrimidinyl)-3,3-dimethyl-2,3-dihydro-1H-indol-6-yl)-1-(1-methyl-1H-imidazol-4-yl)-2-propyn-1-ol]
< 1000 | COC(=O)C(C)(O)C#Cc1ccc2c(c1)N(c1nc(N)ncc1Cl)CC2(C)C (stereo not shown) [Example 48, methyl 4-(1-(2-amino-5-chloro-4-pyrimidinyl)-3,3-dimethyl-2,3-dihydro-1H-indol-6-yl)-2-hydroxy-2-methyl-3-butynoate]
< 1000 | CNC(=O)C(C)(O)C#Cc1ccc2c(c1)N(c1nc(N)ncc1Cl)CC2(C)C (stereo not shown) [Example 49, 4-(1-(2-amino-5-chloro-4-pyrimidinyl)-3,3-dimethyl-2,3-dihydro-1H-indol-6-yl)-2-hydroxy-N,2-dimethyl-3-butynamide]
< 1000 | CC(O)(C#Cc1ccc2c(c1)N(c1nc(N)ncc1Cl)CC2(C)C)C(=O)N1CCCC1 (stereo not shown) [Example 50, 4-(1-(2-amino-5-chloro-4-pyrimidinyl)-3,3-dimethyl-2,3-dihydro-1H-indol-6-yl)-2-methyl-1-oxo-1-(1-pyrrolidinyl)-3-butyn-2-ol]
< 1000 | CC1(CO)CN(c2nc(N)ncc2Cl)c2cc(C#CC3(O)CCCC3)ccc21 (stereo not shown) [Example 54, 1-((1-(2-amino-5-chloro-4-pyrimidinyl)-3-(hydroxymethyl)-3-methyl-2,3-dihydro-1H-indol-6-yl)ethynyl)cyclopentanol]
< 1000 | CC(O)(C#Cc1ccc2c(c1)N(c1ccncc1)CC2(CO)CO)c1nccs1 (stereo not shown) [Example 59, 4-(3,3-bis(hydroxymethyl)-1-(4-pyridinyl)-2,3-dihydro-1H-indol-6-yl)-2-(1,3-thiazol-2-yl)-3-butyn-2-ol]
< 1000 | CC(O)(C#Cc1ccc2c(c1)N(c1nc(N)ncc1Cl)CC2(CO)CO)c1nccs1 (stereo not shown) [Example 60, 4-(1-(2-amino-5-chloro-4-pyrimidinyl)-3,3-bis(hydroxymethyl)-2,3-dihydro-1H-indol-6-yl)-2-(1,3-thiazol-2-yl)-3-butyn-2-ol]
< 1000 | Nc1ncc(Cl)c(N2CC(CO)(CO)c3ccc(C#CC4(O)CCCC4)cc32)n1 [Example 62, 1-((1-(2-amino-5-chloro-4-pyrimidinyl)-3,3-bis(hydroxymethyl)-2,3-dihydro-1H-indol-6-yl)ethynyl)cyclopentanol]
< 1000 | CC1(CCCO)CN(c2nc(N)ncc2Cl)c2cc(C#CC3(O)CCCC3)ccc21 (stereo not shown) [Example 63, 1-((1-(2-amino-5-chloro-4-pyrimidinyl)-3-(3-hydroxypropyl)-3-methyl-2,3-dihydro-1H-indol-6-yl)ethynyl)cyclopentanol]
< 1000 | COCCC1(C)CN(c2nc(N)ncc2Cl)c2cc(C#CC3(O)CCCC3)ccc21 (stereo not shown) [Example 64, 1-((1-(2-amino-5-chloro-4-pyrimidinyl)-3-(2-methoxyethyl)-3-methyl-2,3-dihydro-1H-indol-6-yl)ethynyl)cyclopentanol]
< 1000 | CC1(C)CN(c2nc(N)ncc2F)c2cc(C#CC3(O)CCCC3)ccc21 [Example 65, 1-((1-(2-amino-5-fluoro-4-pyrimidinyl)-3,3-dimethyl-2,3-dihydro-1H-indol-6-yl)ethynyl)cyclopentanol]
< 1000 | CC1(CO)CN(c2nc(N)ncc2F)c2cc(C#CC3(O)CCCC3)ccc21 (stereo not shown) [Example 66, 1-((1-(2-amino-5-fluoro-4-pyrimidinyl)-3-(hydroxymethyl)-3-methyl-2,3-dihydro-1H-indol-6-yl)ethynyl)cyclopentanol]
